Assay results: PubChem BioAssay AID652123 (The Scripps Research Institute Molecular Screening Center, 2013)
The source made the active and inactive calls. No rule for the calls is given here.

Target: Hepatocyte nuclear factor 4-alpha (Homo sapiens) (UniProt P41235)
Assay: HNF4 dimerization inhibitors, dose response, counter-screen for ABHD5-PLIN5 interaction inhibitor project, biochemical, luminescence, round 2 (AID 652123)
Settings: HNF4 dimerization biochemical luminescence assay

Hepatocyte nuclear factor 4-alpha (Homo sapiens), sequence (P41235 whole entry, looked up): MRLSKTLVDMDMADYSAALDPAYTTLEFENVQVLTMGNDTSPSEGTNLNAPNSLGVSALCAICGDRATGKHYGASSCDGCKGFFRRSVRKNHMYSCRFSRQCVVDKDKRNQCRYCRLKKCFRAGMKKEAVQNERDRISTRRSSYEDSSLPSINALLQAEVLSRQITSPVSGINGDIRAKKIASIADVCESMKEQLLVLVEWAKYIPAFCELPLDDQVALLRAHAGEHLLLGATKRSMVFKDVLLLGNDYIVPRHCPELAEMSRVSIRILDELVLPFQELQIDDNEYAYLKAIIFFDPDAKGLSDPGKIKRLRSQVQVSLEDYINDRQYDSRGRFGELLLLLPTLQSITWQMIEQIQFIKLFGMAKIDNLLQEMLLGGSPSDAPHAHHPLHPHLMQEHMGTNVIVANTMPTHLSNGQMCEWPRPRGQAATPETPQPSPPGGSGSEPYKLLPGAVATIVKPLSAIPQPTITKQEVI

IC50 | SMILES
> 39.8 µM (inactive) | CN1C(=O)c2ccccc2Sc2ccc(NC(=O)NCCc3ccccc3)cc21
> 39.8 µM (inactive) | CCCC(=O)Nc1ccc2c(c1)C(=O)N(C)c1ccccc1O2
> 39.8 µM (inactive) | CCCC(=O)N(CCCN1CCOCC1)c1nc2ccc(Cl)cc2s1
5.08 µM | CCS(=O)(=O)c1ncc(Cl)c(C(=O)Nc2ccc(S(N)(=O)=O)cc2)n1
> 39.8 µM (inactive) | CN1C(=O)c2ccccc2Sc2ccc(NC(=O)NCCCc3ccccc3)cc21
> 39.8 µM (inactive) | CN1C(=O)c2ccccc2Oc2ccc(NC(=O)c3cccs3)cc21
> 39.8 µM (inactive) | Cc1ccc(CS(=O)(=O)c2ncc(Cl)c(C(=O)Nc3nnc(C(C)C)s3)n2)cc1
1.94 µM | COc1ccc(CCNC(=O)c2nc(S(=O)(=O)Cc3ccc(F)cc3)ncc2Cl)cc1OC
2.42 µM | O=C(Nc1ccc2ccccc2c1)c1nc(S(=O)(=O)Cc2ccccc2)ncc1Cl
2.44 µM | Cc1ccc(NC(=O)c2nc(S(C)(=O)=O)ncc2Cl)cc1
1.35 µM | O=C(c1nc(S(=O)(=O)Cc2ccccc2)ncc1Cl)N(Cc1ccccc1)Cc1ccco1
> 39.8 µM (inactive) | CCCCCCNC(=O)Nc1ccc2c(c1)Sc1ccccc1C(=O)N2C
> 39.8 µM (inactive) | O=C(Cc1cccc(F)c1)N1CCN(S(=O)(=O)c2ccc3c(c2)OCCO3)CC1
> 39.8 µM (inactive) | CN(C)CCCN(C(=O)c1cc2ccccc2oc1=O)c1nc2ccc(Cl)cc2s1
3.09 µM | Cc1ccc(CS(=O)(=O)c2ncc(Cl)c(C(=O)Nc3cccc(C(F)(F)F)c3)n2)cc1
> 39.8 µM (inactive) | COc1ccc(CC(=O)N2CCCN(S(=O)(=O)c3ccc(C)cc3)CC2)cc1OC
> 39.8 µM (inactive) | CCCCCNC(=O)Nc1ccc2c(c1)Sc1ccccc1C(=O)N2C
> 39.8 µM (inactive) | CN1C(=O)c2ccccc2Sc2ccc(NC(=O)NCCc3cccs3)cc21
2.79 µM | Cc1ccc(CS(=O)(=O)c2ncc(Cl)c(C(=O)Nc3cccc4ccccc34)n2)cc1
4.01 µM | CCS(=O)(=O)c1ncc(Cl)c(C(=O)Nc2ccc(C)cc2)n1

IC50 | SMILES
> 39.8 µM (inactive) | CN(C)CCCN(C(=O)CCc1ccccc1)c1nc2ccc(Cl)cc2s1
> 39.8 µM (inactive) | CC(NC(=O)CN1CCN(S(=O)(=O)c2ccc3c(c2)OCCCO3)CC1)c1cc2ccccc2o1 (centres undefined)
> 39.8 µM (inactive) | CCCNC(=O)Nc1ccc2c(c1)N(CC)C(=O)c1ccccc1S2
> 39.8 µM (inactive) | CN(C)CCCN(C(=O)C1CCCCC1)c1nc2cc(Br)ccc2s1
1.87 µM | Cc1ccc(CS(=O)(=O)c2ncc(Cl)c(C(=O)NCc3ccc4c(c3)OCO4)n2)cc1
4.99 µM | CCCS(=O)(=O)c1ncc(Cl)c(C(=O)Nc2ccc(C(=O)OC)cc2)n1
> 39.8 µM (inactive) | CCCC(=O)Nc1ccc2c(c1)C(=O)N(C)c1cc(C)ccc1O2
> 39.8 µM (inactive) | CN1C(=O)c2ccccc2Oc2ccc(NC(=O)c3cc4ccccc4[nH]3)cc21
> 39.8 µM (inactive) | CCCCCCCNC(=O)Nc1ccc2c(c1)Sc1ccccc1C(=O)N2C
3.81 µM | NS(=O)(=O)c1ccc(NC(=O)c2nc(S(=O)(=O)Cc3ccccc3)ncc2Cl)cc1
1.15 µM | CS(=O)(=O)c1ncc(Cl)c(C(=O)Nc2ccc(C(F)(F)F)cc2)n1
2.17 µM | Cc1ccc(CS(=O)(=O)c2ncc(Cl)c(C(=O)N3CCN(C)CC3)n2)cc1
> 39.8 µM (inactive) | CC(C)N1C(=O)c2ccccc2Oc2ccc(NC(=O)c3ccccc3)cc21
1.38 µM | CN(C(=O)c1nc(S(C)(=O)=O)ncc1Cl)c1ccccc1
> 39.8 µM (inactive) | CN(C)CCCN(C(=O)C1CCCCC1)c1nc2cc(Cl)ccc2s1
> 39.8 µM (inactive) | Cc1ccc2c(CC(=O)N3CCN(S(=O)(=O)c4ccc5c(c4)OCCCO5)CC3)coc2c1C
> 39.8 µM (inactive) | CN(C)CCCN(C(=O)Cc1ccc(F)cc1)c1nc2ccc(Cl)cc2s1
inactive | O=C(Cc1ccc2c(c1)CCCC2)N1CCN(S(=O)(=O)c2ccc3c(c2)OCCO3)CC1
5.66 µM | CCCS(=O)(=O)c1ccc(Cl)c(C(=O)Nc2ccc(C(=O)OCC)cc2)c1
